Test results taken from the supplement of paper PMC11061612.

Legend:
Assay in all cases: Bliss excess, mean over the matrix (fraction); higher = more synergy
[1] = system: TGBC11TKB (Gastric Carcinoma)
Procedure, shortened: (§1)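 Cell lines in DMEM/F12 or RPMI with 10% FBS were plated in 1536-well plates, held 24 hours at 37°C, 5% CO2, then given two-drug dose matrices for 72 hours (DMSO typically 0.2%). Viability was read by CellTiter-Glo 2.0 luminescence and scaled as inhibition from 0 (vehicle wells) to 1 (blank wells). Combination Emax is the second-highest inhibition in the matrix; Bliss excess is observed combination effect minus expected EA + EB − EA·EB, EA and EB being single-agent effects.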

GI-1 (Glioblastoma) = system: GI-1 (Glioblastoma)
Procedure, shortened: as §1

[2] = system: HSC-2 (Oral Cavity Carcinoma)
Procedure, shortened: as §1

[3] = system: OCUM-1 (Gastric Carcinoma)
Procedure, shortened: as §1

NH-12 (Neuroblastoma) = system: NH-12 (Neuroblastoma)
Procedure, shortened: as §1

[4] = system: BV-173 (Chronic Myelogenous Leukemia)
Procedure, shortened: as §1

[5] = system: KP-2 (Pancreatic Carcinoma)
Procedure, shortened: as §1

RPMI-7951 (Melanoma) = system: RPMI-7951 (Melanoma)
Procedure, shortened: as §1

EW-3 (Ewing's Sarcoma) = system: EW-3 (Ewing's Sarcoma)
Procedure, shortened: as §1

[6] = system: KYSE-150 (Esophageal Squamous Cell Carcinoma)
Procedure, shortened: as §1

[7] = system: JHH-7 (Hepatocellular Carcinoma)
Procedure, shortened: as §1

[8] = system: PF-382 (T-Lymphoblastic Leukemia)
Procedure, shortened: as §1

[9] = system: HC-1 (Other Blood Carcinomas)
Procedure, shortened: as §1

[10] = system: NCI-H2347 (Lung Adenocarcinoma)
Procedure, shortened: as §1

[11] = system: NCI-N87 (Gastric Carcinoma)
Procedure, shortened: as §1

[12] = system: SCC-3 (B-Cell Non-Hodgkin's Lymphoma)
Procedure, shortened: as §1

EW-18 (Ewing's Sarcoma) = system: EW-18 (Ewing's Sarcoma)
Procedure, shortened: as §1

[13] = system: MFE-319 (Endometrial Carcinoma)
Procedure, shortened: as §1

[14] = system: NCI-H1573 (Lung Adenocarcinoma)
Procedure, shortened: as §1

[15] = system: NCI-H513 (Other Solid Carcinomas)
Procedure, shortened: as §1

SMILES | Bliss excess [1] | Bliss excess (GI-1 (Glioblastoma)) | Bliss excess [2] | Bliss excess [3] | Bliss excess (NH-12 (Neuroblastoma)) | Bliss excess [4] | Bliss excess [5] | Bliss excess (RPMI-7951 (Melanoma)) | Bliss excess (EW-3 (Ewing's Sarcoma)) | Bliss excess [6] | Bliss excess [7] | Bliss excess [8] | Bliss excess [9] | Bliss excess [10] | Bliss excess [11] | Bliss excess [12] | Bliss excess (EW-18 (Ewing's Sarcoma)) | Bliss excess [13] | Bliss excess [14] | Bliss excess [15]
CN(CCO)CC[C@H](CSc1ccccc1)Nc1ccc(S(=O)(=O)NC(=O)c2ccc(N3CCC([C@@H](O)c4ccccc4-c4ccc(Cl)cc4)CC3)cc2)cc1S(=O)(=O)C(F)(F)F [AZD4320] + C[C@@H](Nc1cc(F)cc(F)c1)c1cc(C(=O)N(C)C)cc2c(=O)cc(N3CCOCC3)oc12 [AZD8186] (first compound max 1 µM, 7x7, partner max 3 µM) | -0.0032 | -0.0011 | -0.0401 | -0.0284 | -0.0224 | 0.0166 | 0.0419 | 0.0019 | -0.0324 | -0.0055 | 0.0257 | 0.0836 | 0.0252 | 0.126 | 0.0029 | 0.0118 | 0.0747 | 0.0048 | -0.0545 | 0.0113
Cc1cc2ncnn2cc1Nc1ncc2c(n1)n(C1CCOCC1)c(=O)n2C [AZD7648] + CN(C)CCCOc1ccc(-c2ccc3ncc4c(c3c2)n(C2CCOCC2)c(=O)n4C)cn1 [AZD0156] (first compound max 10 µM, 7x7, partner max 1 µM) | -0.0224 | 0.0472 | 0.0203 | 0.0016 | -0.0153 | 0.0151 | -0.0182 | -0.0164 | -0.0281 | 0.0054 | -0.0152 | 0.0685 | -0.0398 | 0.0159 | 0.0452 | 0.0458 | -0.0268 | 0.0572 | -0.0085 | -0.0145
NC1(C(=O)N[C@@H](CCO)c2ccc(Cl)cc2)CCN(c2ncnc3[nH]ccc23)CC1 [Capivasertib] + CC(=O)c1c(C)c2cnc(Nc3ccc(N4CCNCC4)cn3)nc2n(C2CCCC2)c1=O [Palbociclib] (first compound max 10 µM, 7x7, partner max 10 µM) | -0.0358 | 0.0117 | -0.0207 | -0.0194 | 0.0124 | -0.0452 | -0.0261 | 0.0186 | 0.0062 | 0.0446 | -0.0238 | -0.0151 | -0.0705 | -0.0459 | -0.0066 | 0.0001 | -0.0276 | -0.0339 | -0.0204 | -0.0061
CC(=O)c1c(C)c2cnc(Nc3ccc(N4CCNCC4)cn3)nc2n(C2CCCC2)c1=O [Palbociclib] + Cn1cnc2c(F)c(Nc3ccc(Br)cc3Cl)c(C(=O)NOCCO)cc21 [Selumetinib] (first compound max 10 µM, 7x7, partner max 10 µM) | 0.0327 | -0.0734 | 0.0254 | -0.0321 | 0.0409 | -0.0657 | -0.0153 | 0.0492 | 0.0301 | 0.127 | -0.0039 | 0.043 | -0.0354 | -0.0362 | 0.0117 | 0.0581 | -0.0542 | 0.0042 | 0.0017 | -0.035
CC1(C)CCC(CN2CCN(c3ccc(C(=O)NS(=O)(=O)c4ccc(NCC5CCOCC5)c([N+](=O)[O-])c4)c(Oc4cnc5[nH]ccc5c4)c3)CC2)=C(c2ccc(Cl)cc2)C1 [Venetoclax] + C[C@@H]1COCCN1C2=NC(=NC(=C2)C3(CC3)[S@](=N)(=O)C)C4=C5C=CNC5=NC=C4 [AZD6738] (first compound max 1 µM, 7x7, partner max 10 µM) | -0.0273 | -0.0025 | 0.0275 | -0.0242 | -0.0647 | -0.0634 | -0.0225 | -0.0474 | 0.0185 | -0.0979 | -0.0318 | 0.0366 | 0.0289 | -0.0454 | -0.0232 | 0.013 | -0.0293 | -0.0494 | -0.0313 | -0.0111
CCN(CCO)CCCOc1ccc2c(Nc3cc(CC(=O)Nc4cccc(F)c4)[nH]n3)ncnc2c1 [AZD2811] + C[C@@H]1COCCN1C2=NC(=NC(=C2)C3(CC3)[S@](=N)(=O)C)C4=C5C=CNC5=NC=C4 [AZD6738] (first compound max 1 µM, 7x7, partner max 10 µM) | -0.0091 | 0.0144 | -0.0424 | -0.0188 | 0.0347 | -0.0537 | -0.0084 | -0.0291 | -0.0152 | -0.0466 | -0.048 | -0.089 | -0.007 | -0.0319 | -0.0855 | 0.0411 | -0.0831 | -0.0472 | -0.0613 | -0.0145
NC1(C(=O)N[C@@H](CCO)c2ccc(Cl)cc2)CCN(c2ncnc3[nH]ccc23)CC1 [Capivasertib] + CCN(CCO)CCCOc1ccc2c(Nc3cc(CC(=O)Nc4cccc(F)c4)[nH]n3)ncnc2c1 [AZD2811] (first compound max 10 µM, 7x7, partner max 1 µM) | -0.0987 | 0.022 | 0.0572 | 0.0378 | -0.0439 | -0.031 | -0.0433 | -0.0886 | 0.0117 | -0.011 | -0.0692 | -0.0497 | -0.0564 | -0.0369 | -0.0529 | 0.0443 | -0.0358 | -0.107 | -0.0074 | -0.0479
CN(CCO)CC[C@H](CSc1ccccc1)Nc1ccc(S(=O)(=O)NC(=O)c2ccc(N3CCC([C@@H](O)c4ccccc4-c4ccc(Cl)cc4)CC3)cc2)cc1S(=O)(=O)C(F)(F)F [AZD4320] + Cn1cnc2c(F)c(Nc3ccc(Br)cc3Cl)c(C(=O)NOCCO)cc21 [Selumetinib] (first compound max 1 µM, 7x7, partner max 3 µM) | 0.0843 | 0.0069 | 0.0195 | 0.0319 | 0.0593 | -0.018 | 0.0496 | -0.006 | -0.0118 | -0.0152 | -0.0214 | 0.0409 | 0.0026 | 0.0288 | 0.0201 | 0.0222 | 0.0109 | 0.0645 | 0.0027 | 0.0445
Cc1cc2ncnn2cc1Nc1ncc2c(n1)n(C1CCOCC1)c(=O)n2C [AZD7648] + O=C(c1cc(Cc2n[nH]c(=O)c3ccccc23)ccc1F)N1CCN(C(=O)C2CC2)CC1 [Olaparib] (first compound max 10 µM, 7x7, partner max 10 µM) | -0.0447 | -0.0013 | -0.0277 | -0.0571 | 0.0165 | -0.0062 | -0.0017 | 0.0044 | -0.0743 | -0.0351 | -0.0356 | 0.0443 | -0.0389 | -0.0144 | -0.0262 | -0.0757 | -0.0427 | -0.0499 | -0.0205 | -0.0002
CC1(C)CCC(CN2CCN(c3ccc(C(=O)NS(=O)(=O)c4ccc(NCC5CCOCC5)c([N+](=O)[O-])c4)c(Oc4cnc5[nH]ccc5c4)c3)CC2)=C(c2ccc(Cl)cc2)C1 [Venetoclax] + COc1cc(Nc2ncc3c(n2)-c2ccc(Cl)cc2C(c2c(F)cccc2OC)=NC3)ccc1C(=O)O [Alisertib] (first compound max 1 µM, 7x7, partner max 10 µM) | 0.0709 | 0.0787 | 0.0857 | 0.0489 | 0.0844 | -0.018 | -0.0293 | 0.0107 | 0.079 | -0.0364 | -0.0134 | 0.0444 | 0.18 | -0.0487 | -0.0675 | 0.0308 | 0.0421 | -0.0256 | -0.0266 | -0.0137
C=CCn1c(=O)c2cnc(Nc3ccc(N4CCN(C)CC4)cc3)nc2n1-c1cccc(C(C)(C)O)n1 [AZD1775] + O=C(c1cc(Cc2n[nH]c(=O)c3ccccc23)ccc1F)N1CCN(C(=O)C2CC2)CC1 [Olaparib] (first compound max 1 µM, partner max 10 µM) | -0.0299 | 0.0056 | -0.0249 | -0.0214 | -0.0167 | 0.0184 | -0.0145 | -0.0176 | -0.0619 | 0.0282 | -0.0398 | -0.0265 | -0.0393 | -0.0921 | -0.046 | -0.0259 | -0.0742 | -0.0235 | -0.0251 | -0.0399
CN(CCO)CC[C@H](CSc1ccccc1)Nc1ccc(S(=O)(=O)NC(=O)c2ccc(N3CCC([C@@H](O)c4ccccc4-c4ccc(Cl)cc4)CC3)cc2)cc1S(=O)(=O)C(F)(F)F [AZD4320] + CCN(CCO)CCCOc1ccc2c(Nc3cc(CC(=O)Nc4cccc(F)c4)[nH]n3)ncnc2c1 [AZD2811] (first compound max 1 µM, 7x7, partner max 1 µM) | 0.0198 | 0.144 | 0.166 | 0.0648 | -0.049 | -0.0566 | 0.0653 | 0.0295 | 0.0814 | 0.007 | -0.0085 | 0.0518 | 0.173 | -0.0472 | 0.0195 | -0.0063 | -0.0795 | 0.0841 | -0.0135 | -0.0283
CCc1c2c(nc3ccc(O)cc13)-c1cc3c(c(=O)n1C2)COC(=O)[C@]3(O)CC [SN-38] + CN(C)CCCOc1ccc(-c2ccc3ncc4c(c3c2)n(C2CCOCC2)c(=O)n4C)cn1 [AZD0156] (first compound max 0.3 µM, 7x7, partner max 1 µM) | 0.0074 | 0.0399 | 0.0085 | -0.0395 | -0.0954 | -0.0256 | 0.0154 | 0.0647 | -0.0679 | 0.1 | 0.0084 | 0.0739 | -0.0261 | -0.0118 | -0.0447 | 0.0372 | -0.0607 | -0.0108 | -0.0359 | 0.0021
